In patent publication US12466827B2, “1,3,4-oxadiazole derivative compounds as histone deacetylase 6 inhibitor, and the pharmaceutical composition comprising the same” (CHONG KUN DANG PHARMACEUTICAL CORP., priority 2020, dated 2025):

Tests used:
human recombinant HDAC6 = biological target: T1, human recombinant HDAC6 (Homo sapiens, UniProt Q9UBN7); test: In vitro HDAC enzyme activity inhibition assay (HDAC6); assay type: biochemical; conditions: for HDAC6 selectivity (fold): HDAC6 over HDAC1; for IC50: same protocol as the HDAC1 test, human recombinant HDAC6 (Calbiochem)
T1 construct: purchased Calbiochem Inc. 382180
T1 sequence (Q9UBN7 1-1215): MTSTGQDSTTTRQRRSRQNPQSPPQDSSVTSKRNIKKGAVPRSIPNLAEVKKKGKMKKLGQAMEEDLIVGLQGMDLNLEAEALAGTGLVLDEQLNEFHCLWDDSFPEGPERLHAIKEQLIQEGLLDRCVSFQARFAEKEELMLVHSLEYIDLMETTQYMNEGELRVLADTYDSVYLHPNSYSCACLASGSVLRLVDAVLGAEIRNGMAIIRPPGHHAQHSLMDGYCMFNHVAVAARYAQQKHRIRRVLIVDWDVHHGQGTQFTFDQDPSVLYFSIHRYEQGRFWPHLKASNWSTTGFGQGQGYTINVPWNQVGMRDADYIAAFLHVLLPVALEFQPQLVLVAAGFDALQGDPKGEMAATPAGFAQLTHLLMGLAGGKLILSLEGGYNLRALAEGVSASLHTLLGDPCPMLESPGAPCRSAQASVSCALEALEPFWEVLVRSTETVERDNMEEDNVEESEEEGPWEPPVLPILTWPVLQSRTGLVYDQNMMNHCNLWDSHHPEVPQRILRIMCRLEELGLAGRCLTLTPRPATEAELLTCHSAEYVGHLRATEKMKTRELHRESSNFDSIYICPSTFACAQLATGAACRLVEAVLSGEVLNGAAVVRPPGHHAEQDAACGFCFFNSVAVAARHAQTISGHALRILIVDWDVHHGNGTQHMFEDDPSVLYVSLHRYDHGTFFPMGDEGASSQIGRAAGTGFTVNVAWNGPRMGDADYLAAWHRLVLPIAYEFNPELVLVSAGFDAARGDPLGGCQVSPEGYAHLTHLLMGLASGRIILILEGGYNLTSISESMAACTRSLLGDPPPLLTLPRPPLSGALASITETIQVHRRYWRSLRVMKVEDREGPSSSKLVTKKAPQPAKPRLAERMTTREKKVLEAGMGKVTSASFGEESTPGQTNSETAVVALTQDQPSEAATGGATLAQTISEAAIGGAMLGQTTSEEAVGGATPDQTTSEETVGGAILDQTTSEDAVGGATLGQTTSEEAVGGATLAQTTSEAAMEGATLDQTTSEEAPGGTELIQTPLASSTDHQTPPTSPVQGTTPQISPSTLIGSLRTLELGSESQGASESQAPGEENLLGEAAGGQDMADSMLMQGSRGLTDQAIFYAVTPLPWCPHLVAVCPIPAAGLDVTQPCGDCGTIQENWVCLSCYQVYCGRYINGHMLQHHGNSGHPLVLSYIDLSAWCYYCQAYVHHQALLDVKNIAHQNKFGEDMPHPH
Method: (§1) In order to confirm the selectivity of the compounds represented by Chemical Formula I of the present invention to HDAC6 through HDAC1 and HDAC6 enzyme activity inhibition experiments, a comparison experiment was performed using the material that has already been developed as a control group.
(§2) HDAC enzyme activity was measured using the HDAC Fluorimetric Drug Discovery Kit (Enzo Life Sciences, Inc., BML-AK511, 516). For the HDAC1 enzyme activity test, human recombinant HDAC1 (BML-SE456) was used as an enzyme source and Fluor de Lys-SIRT1 (BNL-KI177) was used as a substrate. After dispensing 5-fold diluted compounds into a 96-well plate, 0.3 μg of enzyme and 10 μM substrate were added to each well of the plate and allowed to react at 30° C. for 60 minutes. Next, Fluor de Lys Developer II (BML-KI176) was added and reacted for 30 minutes to complete the reaction, and then the fluorescence values (Ex 360, Em 460) were measured using a multi-plate reader (Flexstation 3, Molecular Device). The HDAC6 enzymes were tested using human recombinant HDAC6 (382180) from Calbiochem Inc., according to the same protocol as the HDAC1 enzyme activity test method. With respect to the final result values, respective IC50 values were calculated using GraphPad Prism 4.0 program, and results thereof were summarized in Table 4 below.

human recombinant HDAC1 = biological target: T2, human recombinant HDAC1 (Homo sapiens, UniProt Q13547); test: In vitro HDAC enzyme activity inhibition assay (HDAC1); assay type: biochemical; conditions: Fluor de Lys-SIRT1 substrate 10 μM, 30° C., 60 minutes, fluorescence
T2 construct: purchased Enzo Life Sciences, Inc. BML-SE456
Method: as §1, §2

T2 sequence (Q13547 whole entry): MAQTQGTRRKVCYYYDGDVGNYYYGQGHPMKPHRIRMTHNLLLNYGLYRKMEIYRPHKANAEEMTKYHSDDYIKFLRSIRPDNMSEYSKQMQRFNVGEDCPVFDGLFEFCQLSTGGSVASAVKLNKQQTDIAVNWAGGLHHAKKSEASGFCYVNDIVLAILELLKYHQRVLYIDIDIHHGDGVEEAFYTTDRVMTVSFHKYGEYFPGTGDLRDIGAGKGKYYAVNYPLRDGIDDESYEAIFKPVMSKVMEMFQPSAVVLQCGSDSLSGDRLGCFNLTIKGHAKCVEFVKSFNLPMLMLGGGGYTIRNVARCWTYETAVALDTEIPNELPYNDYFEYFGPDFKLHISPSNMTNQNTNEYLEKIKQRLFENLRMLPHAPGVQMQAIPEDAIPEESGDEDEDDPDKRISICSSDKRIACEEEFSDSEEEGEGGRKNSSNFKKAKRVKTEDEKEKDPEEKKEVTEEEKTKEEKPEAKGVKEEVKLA

| SMILES | HDAC6 selectivity (fold) (human recombinant HDAC6) | IC50 (human recombinant HDAC6) | IC50 (human recombinant HDAC1) |
| --- | --- | --- | --- |
| CCC(=O)N1CCC(S(=O)(=O)N(Cc2cn3ccc(-c4nnc(C(F)F)o4)cc3n2)c2cccc(F)c2)CC1 [Compound 4246, N-((7-(5-(difluoromethyl)-1,3,4-oxadiazol-2-yl)imidazo[1,2-a]pyridin-2-yl)methyl)-N-(3-fluorophenyl)-1-propionylpiperidine-4-sulfonamide] | 660 fold | 75.8 nM | > 50000 nM |
| O=C(CO)N1CCC(S(=O)(=O)N(Cc2cn3ccc(-c4nnc(C(F)F)o4)cc3n2)c2cccc(F)c2)CC1 [Compound 4247, N-((7-(5-(difluoromethyl)-1,3,4-oxadiazol-2-yl)imidazo[1,2-a]pyridin-2-yl)methyl)-N-(3-fluorophenyl)-1-(2-hydroxyacetyl)piperidine-4-sulfonamide] | 980 fold | 51 nM | > 50000 nM |
| O=C(C1CCC1)N1CCC(S(=O)(=O)N(Cc2cn3ccc(-c4nnc(C(F)F)o4)cc3n2)c2cccc(F)c2)CC1 [Compound 4248, 1-(cyclobutanecarbonyl)-N-((7-(5-(difluoromethyl)-1,3,4-oxadiazol-2-yl)imidazo[1,2-a]pyridine-2-yl)methyl)-N-(3-fluorophenyl)piperidine-4-sulfonamide] | 542 fold | 92.2 nM | > 50000 nM |
| O=C(C1COC1)N1CCC(S(=O)(=O)N(Cc2cn3ccc(-c4nnc(C(F)F)o4)cc3n2)c2cccc(F)c2)CC1 [Compound 4249, N-((7-(5-(difluoromethyl)-1,3,4-oxadiazol-2-yl)imidazo[1,2-a]pyridin-2-yl)methyl)-N-(3-fluorophenyl)-1-(oxetan-3-carbonyl)piperidine-4-sulfonamide] | 684 fold | 73.1 nM | > 50000 nM |
| O=C(N1CCC(S(=O)(=O)N(Cc2cn3ccc(-c4nnc(C(F)F)o4)cc3n2)c2cccc(F)c2)CC1)C(F)(F)F [Compound 4250, N-((7-(5-(difluoromethyl)-1,3,4-oxadiazol-2-yl)imidazo[1,2-a]pyridin-2-yl)methyl)-N-(3-fluorophenyl)-1-(2,2,2-trifluoroacetyl)piperidine-4-sulfonamide] | 431 fold | 116 nM | > 50000 nM |
| CS(=O)(=O)N1CCC(S(=O)(=O)N(Cc2cn3ccc(-c4nnc(C(F)F)o4)cc3n2)c2cccc(F)c2)CC1 [Compound 4251, N-((7-(5-(difluoromethyl)-1,3,4-oxadiazol-2-yl)imidazo[1,2-a]pyridin-2-yl)methyl)-N-(3-fluorophenyl)-1-(methylsulfonyl)piperidine-4-sulfonamide] | 525 fold | 95.2 nM | > 50000 nM |
| COC(=O)N1CCC(S(=O)(=O)N(Cc2cn3ccc(-c4nnc(C(F)F)o4)cc3n2)c2cccc(F)c2)CC1 [Compound 4252, methyl 4-(N-((7-(5-(difluoromethyl)-1,3,4-oxadiazol-2-yl)imidazo[1,2-a]pyridin-2-yl)methyl)-N-(3-fluorophenyl)sulfamoyl)piperidine-1-carboxylate] | 455 fold | 110 nM | > 50000 nM |
| CN(C)C(=O)N1CCC(S(=O)(=O)N(Cc2cn3ccc(-c4nnc(C(F)F)o4)cc3n2)c2cccc(F)c2)CC1 [Compound 4253, 4—(N-((7-(5-(difluoromethyl)-1,3,4-oxadiazol-2-yl)imidazo[1,2-a]pyridin-2-yl)methyl)-N-(3-fluorophenyl)sulfamoyl)-N, N-dimethylpiperidine-1-carboxamide] | 503 fold | 99.4 nM | > 50000 nM |
| O=S(=O)(C1CCN(c2ccccn2)CC1)N(Cc1cn2ccc(-c3nnc(C(F)F)o3)cc2n1)c1cccc(F)c1 [Compound 4254, N-((7-(5-(difluoromethyl)-1,3,4-oxadiazol-2-yl)imidazo[1,2-a]pyridin-2-yl)methyl)-N-(3-fluorophenyl)-1-(pyridin-2-yl)piperidine-4-sulfonamide] | 430 fold | 116 nM | > 50000 nM |
| O=S(=O)(C1CCN(c2ncccn2)CC1)N(Cc1cn2ccc(-c3nnc(C(F)F)o3)cc2n1)c1cccc(F)c1 [Compound 4255, N-((7-(5-(difluoromethyl)-1,3,4-oxadiazol-2-yl)imidazo[1,2-a]pyridin-2-yl)methyl)-N-(3-fluorophenyl)-1-(pyrimidin-2-yl)piperidine-4-sulfonamide] | 463 fold | 108 nM | > 50000 nM |
| CN1CCN(S(=O)(=O)N(Cc2cn3ccc(-c4nnc(C(F)F)o4)cc3n2)c2ccccc2)CC1 [Compound 4256, N-((7-(5-(difluoromethyl)-1,3,4-oxadiazol-2-yl)imidazo[1,2-a]pyridin-2-yl)methyl)-4-methyl-N-phenylpiperazine-1-sulfonamide] | 630 fold | 79.4 nM | > 50000 nM |
| CCN1CCN(S(=O)(=O)N(Cc2cn3ccc(-c4nnc(C(F)F)o4)cc3n2)c2ccccc2)CC1 [Compound 4257, N-((7-(5-(difluoromethyl)-1,3,4-oxadiazol-2-yl)imidazo[1,2-a]pyridin-2-yl)methyl)-4-ethyl-N-phenylpiperazine-1-sulfonamide] | 674 fold | 74.2 nM | > 50000 nM |
| CC(C)N1CCN(S(=O)(=O)N(Cc2cn3ccc(-c4nnc(C(F)F)o4)cc3n2)c2ccccc2)CC1 [Compound 4258, N-((7-(5-(difluoromethyl)-1,3,4-oxadiazol-2-yl)imidazo[1,2-a]pyridin-2-yl)methyl)-4-isopropyl-N-phenylpiperazine-1-sulfonamide] | 500 fold | 100 nM | > 50000 nM |
| CC(CO)N1CCN(S(=O)(=O)N(Cc2cn3ccc(-c4nnc(C(F)F)o4)cc3n2)c2ccccc2)CC1 (stereo not drawn) [Compound 4259, N-((7-(5-(difluoromethyl)-1,3,4-oxadiazol-2-yl)imidazo[1,2-a]pyridin-2-yl)methyl)-4-(1-hydroxypropan-2-yl)-N-phenylpiperazine-1-sulfonamide] | 605 fold | 82.6 nM | > 50000 nM |
| O=S(=O)(N1CCN(C2CCC2)CC1)N(Cc1cn2ccc(-c3nnc(C(F)F)o3)cc2n1)c1ccccc1 [Compound 4260, 4-cyclobutyl-N-((7-(5-(difluoromethyl)-1,3,4-oxadiazol-2-yl)imidazo[1,2-a]pyridin-2-yl)methyl)-N-phenylpiperazine-1-sulfonamide] | 573 fold | 87.3 nM | > 50000 nM |
| O=S(=O)(N1CCN(C2COC2)CC1)N(Cc1cn2ccc(-c3nnc(C(F)F)o3)cc2n1)c1ccccc1 [Compound 4261, N-((7-(5-(difluoromethyl)-1,3,4-oxadiazol-2-yl)imidazo[1,2-a]pyridin-2-yl)methyl)-4-(oxetan-3-yl)-N-phenylpiperazine-1-sulfonamide] | 588 fold | 85 nM | > 50000 nM |
| O=S(=O)(N1CCN(C2CCCCC2)CC1)N(Cc1cn2ccc(-c3nnc(C(F)F)o3)cc2n1)c1ccccc1 [Compound 4262, 4-cyclohexyl-N-((7-(5-(difluoromethyl)-1,3,4-oxadiazol-2-yl)imidazo[1,2-a]pyridin-2-yl)methyl)-N-phenylpiperazine-1-sulfonamide] | 167 fold | 299 nM | > 50000 nM |
